{"source": "patent US20040063695A1", "about": "“Cystic fibrosis transmembrane conductance regulator protein inhibitors and uses thereof” (priority 2002, published 2004)", "key": {"human wildtype CFTR": {"molecular_target": "T1, human wildtype CFTR (Homo sapiens, UniProt P13569)", "T1 construct": "expressed in transfected cells; host or cells: Fischer rat thyroid (FRT) cells, stably transfected, co-expressing YFP-H148Q", "assay": "YFP fluorescence assay of CFTR-mediated I− transport in FRT cells", "assay_type": "cell-based", "conditions": "relative to CFTRinh-172 = 1.0"}, "[1]": {"test_system": "cholera toxin-induced intestinal fluid secretion", "design": "species or system mice", "conditions": "mouse, in vivo, ip"}, "urea transporter (UT-B)": {"molecular_target": "T2, urea transporter (UT-B) (Homo sapiens, UniProt Q13336)", "T2 sequence (Q13336 1-389)": "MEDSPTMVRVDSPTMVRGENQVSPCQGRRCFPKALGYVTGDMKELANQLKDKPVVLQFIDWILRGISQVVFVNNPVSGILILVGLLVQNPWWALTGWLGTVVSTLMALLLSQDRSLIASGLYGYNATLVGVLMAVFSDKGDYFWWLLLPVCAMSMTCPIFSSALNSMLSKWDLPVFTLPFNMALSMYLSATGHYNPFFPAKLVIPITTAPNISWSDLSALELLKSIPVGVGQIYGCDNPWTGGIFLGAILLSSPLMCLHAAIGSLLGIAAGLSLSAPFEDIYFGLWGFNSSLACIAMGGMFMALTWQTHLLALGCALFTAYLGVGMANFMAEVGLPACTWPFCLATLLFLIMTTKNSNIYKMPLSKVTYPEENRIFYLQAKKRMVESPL", "assay": "Additional specificity study: urea transporter", "conditions": "5 μM"}, "water channel (AQP1)": {"molecular_target": "T3, water channel (AQP1) (Homo sapiens, UniProt P29972)", "T3 sequence (P29972 1-269)": "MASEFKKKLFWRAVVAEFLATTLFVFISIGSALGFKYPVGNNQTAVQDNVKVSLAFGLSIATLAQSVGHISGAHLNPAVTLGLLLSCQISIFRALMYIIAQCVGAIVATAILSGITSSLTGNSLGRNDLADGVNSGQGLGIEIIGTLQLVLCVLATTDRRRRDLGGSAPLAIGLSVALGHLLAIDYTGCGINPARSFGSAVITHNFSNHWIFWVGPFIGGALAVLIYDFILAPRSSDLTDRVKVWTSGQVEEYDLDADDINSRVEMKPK", "assay": "Additional specificity study: water channel", "conditions": "5 μM"}, "Animal toxicity in mice": {"assay": "Animal toxicity in mice", "assay_type": "in vivo"}, "[2]": {"test_system": "Volume-sensitive Cl− channels", "assay": "Volume-activated Cl− current, whole-cell patch clamp on FRT cells", "assay_type": "cell-based, rat", "conditions": "5 μM; 250 mosM/kg hypotonic solution", "description": "FIG. 4B is a graphical representation of volume-activated Cl^− current (hypotonic 250 mosM/kg H2O) measured in whole-cell patch clamp experiments on FRT cells."}, "CFTR Cl− channel": {"molecular_target": "T4, CFTR Cl− channel (Rattus norvegicus, UniProt P34158)", "T4 construct": "from tissue; host or cells: rat colon mucosa strips", "T4 sequence (P34158 whole entry)": "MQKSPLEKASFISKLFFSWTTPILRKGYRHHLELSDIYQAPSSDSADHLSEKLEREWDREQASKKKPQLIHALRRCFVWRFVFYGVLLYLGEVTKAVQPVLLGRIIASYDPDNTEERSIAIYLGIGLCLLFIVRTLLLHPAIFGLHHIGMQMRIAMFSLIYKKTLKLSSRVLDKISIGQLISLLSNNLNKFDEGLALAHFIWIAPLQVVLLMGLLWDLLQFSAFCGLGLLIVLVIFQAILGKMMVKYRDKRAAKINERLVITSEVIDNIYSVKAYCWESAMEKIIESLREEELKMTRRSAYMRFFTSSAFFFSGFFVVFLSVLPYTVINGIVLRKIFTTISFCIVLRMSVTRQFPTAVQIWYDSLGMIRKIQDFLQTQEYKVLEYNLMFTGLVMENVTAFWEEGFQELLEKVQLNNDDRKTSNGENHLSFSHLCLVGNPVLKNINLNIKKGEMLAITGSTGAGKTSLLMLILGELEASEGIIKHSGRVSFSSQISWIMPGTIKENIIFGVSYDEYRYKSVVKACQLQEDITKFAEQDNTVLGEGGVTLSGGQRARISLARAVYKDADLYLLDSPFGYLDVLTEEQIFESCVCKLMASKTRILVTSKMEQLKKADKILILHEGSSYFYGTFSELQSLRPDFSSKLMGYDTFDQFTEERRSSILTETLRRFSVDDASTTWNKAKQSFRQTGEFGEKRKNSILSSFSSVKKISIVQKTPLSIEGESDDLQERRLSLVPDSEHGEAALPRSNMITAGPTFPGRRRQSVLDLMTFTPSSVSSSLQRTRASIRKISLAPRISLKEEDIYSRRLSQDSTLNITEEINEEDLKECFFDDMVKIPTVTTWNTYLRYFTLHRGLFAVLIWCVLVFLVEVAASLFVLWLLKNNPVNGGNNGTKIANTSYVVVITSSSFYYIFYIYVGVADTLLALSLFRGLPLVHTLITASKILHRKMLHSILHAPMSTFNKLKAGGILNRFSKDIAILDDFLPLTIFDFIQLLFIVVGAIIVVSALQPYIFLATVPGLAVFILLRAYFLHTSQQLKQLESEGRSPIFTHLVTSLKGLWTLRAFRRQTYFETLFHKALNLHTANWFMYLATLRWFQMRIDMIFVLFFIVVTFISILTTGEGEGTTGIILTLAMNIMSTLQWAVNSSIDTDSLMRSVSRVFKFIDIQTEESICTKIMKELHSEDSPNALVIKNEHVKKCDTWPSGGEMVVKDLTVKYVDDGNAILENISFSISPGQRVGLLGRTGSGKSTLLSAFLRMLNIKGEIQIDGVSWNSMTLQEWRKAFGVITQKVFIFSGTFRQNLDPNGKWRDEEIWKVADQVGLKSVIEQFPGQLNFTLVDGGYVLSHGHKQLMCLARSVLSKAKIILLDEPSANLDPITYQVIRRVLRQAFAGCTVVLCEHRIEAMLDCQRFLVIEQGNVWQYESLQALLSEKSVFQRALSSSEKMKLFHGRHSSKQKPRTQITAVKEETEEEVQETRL", "assay": "Short-circuit current in isolated rat colonic mucosa", "conditions": "amiloride, forskolin 20 μM"}, "[3]": {"test_system": "Calcium-sensitive Cl− channels", "assay": "UTP-stimulated Ca2+-dependent Cl− secretion, short-circuit current in human bronchial epithelial cells", "assay_type": "cell-based"}, "Na+/H+ exchanger (NEE3)": {"molecular_target": "T5, Na+/H+ exchanger (NEE3) (Homo sapiens, UniProt P48764)", "T5 sequence (P48764 26-834)": "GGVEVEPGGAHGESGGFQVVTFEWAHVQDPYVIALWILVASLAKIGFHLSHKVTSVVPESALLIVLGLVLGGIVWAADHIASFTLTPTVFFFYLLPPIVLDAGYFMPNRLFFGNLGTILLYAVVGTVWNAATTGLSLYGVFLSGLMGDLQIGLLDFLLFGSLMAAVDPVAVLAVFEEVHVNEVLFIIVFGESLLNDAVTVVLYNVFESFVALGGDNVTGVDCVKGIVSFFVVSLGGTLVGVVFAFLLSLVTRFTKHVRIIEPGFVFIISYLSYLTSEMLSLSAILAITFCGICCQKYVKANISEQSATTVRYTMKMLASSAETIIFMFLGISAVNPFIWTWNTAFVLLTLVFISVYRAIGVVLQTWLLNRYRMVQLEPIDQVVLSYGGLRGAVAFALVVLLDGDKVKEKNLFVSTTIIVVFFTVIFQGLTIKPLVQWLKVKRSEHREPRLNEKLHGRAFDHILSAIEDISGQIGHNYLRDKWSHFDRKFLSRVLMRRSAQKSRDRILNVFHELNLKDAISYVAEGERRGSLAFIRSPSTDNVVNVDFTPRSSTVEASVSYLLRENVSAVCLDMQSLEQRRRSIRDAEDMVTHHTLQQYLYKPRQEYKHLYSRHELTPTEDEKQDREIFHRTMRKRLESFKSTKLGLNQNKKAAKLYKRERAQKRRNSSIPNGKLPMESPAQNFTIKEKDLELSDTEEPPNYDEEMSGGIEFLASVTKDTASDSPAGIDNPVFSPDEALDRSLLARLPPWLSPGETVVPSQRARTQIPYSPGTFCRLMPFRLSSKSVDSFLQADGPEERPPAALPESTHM", "assay": "Additional specificity study: Na+/H+ exchanger", "conditions": "5 μM"}, "FRT cells": {"test_system": "FRT cells", "assay": "Cell toxicity by the dihydrorhodamine method", "conditions": "after 24 hours, dihydrorhodamine assay"}, "MDR-1": {"molecular_target": "MDR-1 (Homo sapiens, UniProt P08183)", "sequence (P08183 whole entry)": "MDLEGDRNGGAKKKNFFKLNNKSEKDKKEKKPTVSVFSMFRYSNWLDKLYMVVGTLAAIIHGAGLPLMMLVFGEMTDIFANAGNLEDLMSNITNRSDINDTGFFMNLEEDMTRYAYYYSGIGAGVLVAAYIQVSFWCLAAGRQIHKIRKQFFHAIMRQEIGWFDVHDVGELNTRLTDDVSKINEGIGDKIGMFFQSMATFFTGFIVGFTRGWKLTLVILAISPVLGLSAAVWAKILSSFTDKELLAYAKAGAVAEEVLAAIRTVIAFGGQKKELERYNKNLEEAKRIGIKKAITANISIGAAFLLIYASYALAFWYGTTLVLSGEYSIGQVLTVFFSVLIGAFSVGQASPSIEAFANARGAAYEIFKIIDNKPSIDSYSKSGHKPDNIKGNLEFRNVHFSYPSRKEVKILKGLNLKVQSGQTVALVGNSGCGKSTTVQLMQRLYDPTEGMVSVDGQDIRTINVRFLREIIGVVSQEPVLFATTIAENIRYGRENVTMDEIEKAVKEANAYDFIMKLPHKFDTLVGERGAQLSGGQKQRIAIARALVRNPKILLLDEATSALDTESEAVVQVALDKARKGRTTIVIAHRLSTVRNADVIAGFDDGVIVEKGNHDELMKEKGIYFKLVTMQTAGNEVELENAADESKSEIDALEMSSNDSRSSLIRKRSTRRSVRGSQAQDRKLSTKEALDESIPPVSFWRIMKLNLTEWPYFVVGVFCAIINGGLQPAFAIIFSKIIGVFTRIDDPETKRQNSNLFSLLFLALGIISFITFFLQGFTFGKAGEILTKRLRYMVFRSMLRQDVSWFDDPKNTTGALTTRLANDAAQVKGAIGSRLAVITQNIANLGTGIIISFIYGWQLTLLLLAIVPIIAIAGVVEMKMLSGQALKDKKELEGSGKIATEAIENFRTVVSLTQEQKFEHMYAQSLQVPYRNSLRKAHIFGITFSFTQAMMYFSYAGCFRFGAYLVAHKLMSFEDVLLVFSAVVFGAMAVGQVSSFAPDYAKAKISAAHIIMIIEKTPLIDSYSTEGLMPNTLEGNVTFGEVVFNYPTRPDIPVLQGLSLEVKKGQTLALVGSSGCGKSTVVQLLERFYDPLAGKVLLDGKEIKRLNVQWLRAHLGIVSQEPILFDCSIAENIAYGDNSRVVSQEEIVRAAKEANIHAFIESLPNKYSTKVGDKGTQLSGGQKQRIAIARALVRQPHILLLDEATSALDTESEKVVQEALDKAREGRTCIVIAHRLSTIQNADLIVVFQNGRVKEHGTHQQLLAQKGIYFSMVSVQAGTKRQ"}, "phosphatase activity": {"test_system": "phosphatase activity", "assay": "Phosphatase assay", "conditions": "5 μM"}, "cellular cAMP production": {"test_system": "cellular cAMP production", "assay": "Intracellular cAMP assay in FRT cells"}, "[4]": {"molecular_target": "T6, Cl−/HCO3− exchanger (AEI) (Homo sapiens, UniProt P02730)", "T6 sequence (P02730 1-911)": "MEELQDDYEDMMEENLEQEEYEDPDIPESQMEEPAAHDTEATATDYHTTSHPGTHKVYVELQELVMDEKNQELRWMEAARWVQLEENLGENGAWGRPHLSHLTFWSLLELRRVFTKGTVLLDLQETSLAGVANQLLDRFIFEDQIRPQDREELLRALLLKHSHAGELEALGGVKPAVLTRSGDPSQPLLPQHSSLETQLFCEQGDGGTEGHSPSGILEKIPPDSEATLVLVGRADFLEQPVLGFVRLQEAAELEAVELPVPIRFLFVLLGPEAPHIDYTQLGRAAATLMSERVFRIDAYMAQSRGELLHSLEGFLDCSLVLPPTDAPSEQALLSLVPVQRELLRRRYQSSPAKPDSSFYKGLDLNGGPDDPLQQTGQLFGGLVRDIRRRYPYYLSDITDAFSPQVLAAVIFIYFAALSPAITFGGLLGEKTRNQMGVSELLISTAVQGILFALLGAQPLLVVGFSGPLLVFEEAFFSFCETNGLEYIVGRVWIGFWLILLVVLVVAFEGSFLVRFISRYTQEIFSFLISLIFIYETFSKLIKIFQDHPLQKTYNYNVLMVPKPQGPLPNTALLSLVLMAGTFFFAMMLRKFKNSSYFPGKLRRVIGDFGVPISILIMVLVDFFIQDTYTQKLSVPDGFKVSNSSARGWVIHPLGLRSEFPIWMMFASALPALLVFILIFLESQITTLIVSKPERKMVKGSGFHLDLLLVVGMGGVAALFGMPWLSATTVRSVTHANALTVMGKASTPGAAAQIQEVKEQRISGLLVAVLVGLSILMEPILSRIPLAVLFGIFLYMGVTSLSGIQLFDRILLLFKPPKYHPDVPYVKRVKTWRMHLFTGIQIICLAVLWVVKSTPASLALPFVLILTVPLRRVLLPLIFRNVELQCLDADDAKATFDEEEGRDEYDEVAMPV", "assay": "Additional specificity study: Cl−/HCO3− exchanger", "conditions": "5 μM"}, "[5]": {"conditions": "mice, intraperitoneal 1000 μg/kg daily for 7 days"}}, "note": "“Also recorded” adds a separate entry of the source. Read-outs that look alike come from different tables or passages of the source.", "data": [{"compound": "O=C(O)c1ccccc1C=C1SC(=S)N(c2ccccc2C(F)(F)F)C1=O", "note": "[4, 4, 3-[(a-trifluoromethyl)phenyl]-5-[(b-carboxyphenyl)methylene]-2-thioxo-4-thiazolidinone]", "values": [{"measurement": "relative potency (CFTR inhibitory activity)", "setting": "human wildtype CFTR", "result": 0.56}]}, {"compound": "O=C(O)c1ccccc1C=C1SC(=S)N(c2ccccc2C(F)(F)F)C1=O", "note": "[a=2, b=2, 3-[(a-trifluoromethyl)phenyl]-5-[(b-carboxyphenyl)methylene]-2-thioxo-4-thiazolidinone]", "values": [{"measurement": "relative potency (CFTR inhibitory activity)", "setting": "human wildtype CFTR", "result": 0.69}]}, {"compound": "O=C(O)c1ccccc1C=C1SC(=S)N(c2ccccc2C(F)(F)F)C1=O", "note": "[4, 3, 3-[(a-trifluoromethyl)phenyl]-5-[(b-carboxyphenyl)methylene]-2-thioxo-4-thiazolidinone]", "values": [{"measurement": "relative potency (CFTR inhibitory activity)", "setting": "human wildtype CFTR", "result": 0.64}]}, {"compound": "O=C(O)c1ccccc1C=C1SC(=S)N(c2ccccc2C(F)(F)F)C1=O", "note": "[2, 3, 3-[(a-trifluoromethyl)phenyl]-5-[(b-carboxyphenyl)methylene]-2-thioxo-4-thiazolidinone]", "values": [{"measurement": "relative potency (CFTR inhibitory activity)", "setting": "human wildtype CFTR", "result": 0.70}]}, {"compound": "O=C1S/C(=C\\c2ccc(O)c(O)c2)C(=S)N1c1cccc(C(F)(F)F)c1", "note": "[CFTRinh-185, 3-[(3-trifluoromethyl)phenyl]-5-[(3,4-dihydroxyphenyl)methylene]-2-thioxo-4-thiazolidinone]", "values": [{"measurement": "relative potency (CFTR inhibitory activity)", "setting": "human wildtype CFTR", "result": 0.2}]}, {"compound": "3-[(3-trifluoromethyl)phenyl]-5-[(4-carboxyphenyl)methylene]-2-thioxo-4-thiazolidinone [CFTRinh-172]", "values": [{"measurement": "fluid accumulation in cholera toxin-treated ileal loops", "setting": "[1]", "result": "effectively prevented fluid accumulation; also recorded: significantly reduced fluid secretion to that in saline control loops"}, {"measurement": "block of urea transporter (UT-B)", "setting": "urea transporter (UT-B)", "result": "did not block"}, {"measurement": "block of water channel (AQP1)", "setting": "water channel (AQP1)", "result": "did not block"}, {"measurement": "food and water intake", "setting": "Animal toxicity in mice; [5]", "result": "not diminished"}, {"measurement": "overt toxicity", "setting": "Animal toxicity in mice; [5]", "result": "did not cause overt toxicity"}, {"measurement": "serum electrolyte concentrations, glucose, liver function indices, serum creatinine, amylase and hematocrit", "setting": "Animal toxicity in mice; [5]", "result": "not changed"}, {"measurement": "overt toxicity", "setting": "Animal toxicity in mice; single systemic dose 10 mg/kg", "result": "did not cause overt toxicity"}, {"measurement": "effect on volume-activated Cl− currents", "setting": "[2]", "result": "did not block"}, {"measurement": "reduction of short-circuit current", "setting": "CFTR Cl− channel; 5 μM in mucosal solution alone", "result": "> 80", "unit": "%"}, {"measurement": "efficacy of short-circuit current inhibition, mucosal vs. serosal addition", "setting": "CFTR Cl− channel", "result": "greater efficacy"}, {"measurement": "effect on Ca2+ activated Cl− secretion", "setting": "[3]; 5 μM, UTP 100 μM apical", "result": "did not inhibit"}, {"measurement": "maximal UTP-dependent short-circuit current", "setting": "[3]; in the presence of 5 μM inhibitor (SE, n=4)", "result": "10.0±0.2", "unit": "μA/cm^2"}, {"measurement": "block of Na+/H+ exchanger (NEE3)", "setting": "Na+/H+ exchanger (NEE3)", "result": "did not block"}, {"measurement": "concentrations non-toxic to FRT cells", "setting": "FRT cells", "result": "up to 100 μM"}, {"measurement": "vincristine accumulation", "setting": "MDR-1; 5 μM", "result": "did not affect vincristine accumulation"}, {"measurement": "effect on phosphatase activity", "setting": "phosphatase activity", "result": "did not affect"}, {"measurement": "effect on cellular cAMP production", "setting": "cellular cAMP production; 5 μM", "result": "did not affect"}, {"measurement": "cAMP content", "setting": "cellular cAMP production; 30 min after 20 μM forskolin, + inhibitor (n=3)", "result": "1140±50", "unit": "fmol/well"}, {"measurement": "block of Cl−/HCO3− exchanger (AEI)", "setting": "[4]", "result": "did not block"}]}, {"compound": "COc1ccc(CCN(C)CCCC(C#N)(c2ccc(OC)c(OC)c2)C(C)C)cc1OC", "note": "(stereo not drawn) [verapamil, reference compound]", "values": [{"measurement": "vincristine accumulation", "setting": "MDR-1; 100 μM", "result": "strongly increased"}]}, {"compound": "O=C(O)c1ccccc1C=C1SC(=S)N(c2ccccc2C(F)(F)F)C1=O", "note": "[3, 3, 3-[(a-trifluoromethyl)phenyl]-5-[(b-carboxyphenyl)methylene]-2-thioxo-4-thiazolidinone]", "values": [{"measurement": "relative potency (CFTR inhibitory activity)", "setting": "human wildtype CFTR", "result": 0.90}]}, {"compound": "O=C(O)c1ccccc1C=C1SC(=S)N(c2ccccc2C(F)(F)F)C1=O", "note": "[3, 2, 3-[(a-trifluoromethyl)phenyl]-5-[(b-carboxyphenyl)methylene]-2-thioxo-4-thiazolidinone]", "values": [{"measurement": "relative potency (CFTR inhibitory activity)", "setting": "human wildtype CFTR", "result": 0.74}]}, {"compound": "O=C(O)c1ccccc1C=C1SC(=S)N(c2ccccc2C(F)(F)F)C1=O", "note": "[2, 4, 3-[(a-trifluoromethyl)phenyl]-5-[(b-carboxyphenyl)methylene]-2-thioxo-4-thiazolidinone]", "values": [{"measurement": "relative potency (CFTR inhibitory activity)", "setting": "human wildtype CFTR", "result": 0.66}]}, {"compound": "O=C(O)c1ccccc1C=C1SC(=S)N(c2ccccc2C(F)(F)F)C1=O", "note": "[4, 2, 3-[(a-trifluoromethyl)phenyl]-5-[(b-carboxyphenyl)methylene]-2-thioxo-4-thiazolidinone]", "values": [{"measurement": "relative potency (CFTR inhibitory activity)", "setting": "human wildtype CFTR", "result": 0.67}]}, {"compound": "O=C(O)Oc1ccc(/C=C2\\SC(=O)N(c3cccc(C(F)(F)F)c3)C2=S)cc1", "note": "[CFTRinh-029, 3-[(3-trifluoromethyl)phenyl]-5-[(4-oxycarboxyphenyl)methylene]-2-thioxo-4-thiazolidinone]", "values": [{"measurement": "relative potency (CFTR inhibitory activity)", "setting": "human wildtype CFTR", "result": 0.3}]}]}
